Assay results reported in patent publication US12527818B2, “Platinum-based chemotherapy, mast binding agents, glucocorticoid receptor (GR) binding agents, and/or HSP90 binding agents for uses in treating cancer” (Emory University, priority 2019, dated 2026).
Entries after “also recorded” stand apart in the source; their conditions may differ. Peptide text beside a SMILES is read from it. * marks the point of attachment. Cbz = O=C(OCc1ccccc1)*

What was measured:
[1] = system: cisplatin-resistant cancer cells; experiment: Cisplatin response and cell viability of cisplatin-resistant cancer cells with 17-AAG; assay type: cell-based, human
Method: (§1) These in vitro observations were confirmed in vivo.
(§2) Experiments were performed to determine whether ubiquitination of MAST1 at K317 and K545 upon hsp90 inhibition is involved in MAST1-mediated cisplatin-resistant cancer cell proliferation and tumor growth. […] The effect of MAST1 WT or 2KR was monitored in cells with MAST1 knockdown. […] This finding was further validated in vivo.

[2] = system: MEK1; experiment: MEK1 activity in cisplatin-resistant cells upon 17-AAG treatment; assay type: cell-based, human; conditions: MAST1 WT
Method: as §2

[3] = system: AKT or cRaf; experiment: Protein levels of other hsp90 client proteins upon 17-AAG treatment; assay type: cell-based, human; conditions: same doses of 17-AAG as diminish MAST1
Method: (§3) Proteins that interact with MAST1 in cells were investigated through 2-dimensional (2D) gel electrophoresis-based proteomic profiling. GST or GST-fused MAST1 was pulled down from human 293T cells. The protein captured by GST-MAST1 but not by GST alone was excised from the 2D gel. Through mass spectrometry-based (MS-based) proteomic analysis, hsp90B was identified as a potential binding partner of MAST1. […] Experiments were performed to determine whether the interaction is limited to the hsp90B isoform by comparing the interaction between MAST1 and hsp90B or hsp90A. Hsp90A, another isoform of hsp90, also binds to MAST1 in cisplatin-resistant cancer cells. Although hsp90A binds to MAST1 in cisplatin-resistant cancer cells, the interaction was weaker compared with hsp90B. […] Experiments were performed to determine whether treatment with 17-AAG, a selective inhibitor of hsp90, alters MAST1 protein levels in cells.
(§4) The ubiquitination status of MAST1 in the presence and absence of hsp90 was assessed. […] This was further confirmed in cisplatin-resistant cancer cells.

[4] = target: hsp90B (Homo sapiens, UniProt P08238)
[5] = system: KB-3-1cisR xenograft tumors; experiment: Xenograft mice bearing KB-3-1cisR tumors treated with 17-AAG and cisplatin; assay type: in vivo
Method: Mice were treated with cisplatin (5 mg/kg) and 17-AAG (50 mg/kg) from 5 days after xenograft.
as §1, §2

[6] = target: hsp90A (Homo sapiens, UniProt P07900)
[7] = system: MAST1; experiment: MAST1 protein level in cancer cells upon 17-AAG treatment; assay type: cell-based, human
Method: as §3
Through a MS-based proteomic analysis, it was identified that MAST1 is specifically ubiquitinated at lysine residues K317 and K545 upon hsp90 inhibition. To investigate whether these 2 residues are the main ubiquitination sites of MAST1 that mediate proteasomal degradation upon hsp90 inhibition, the lysine-to-arginine mutant forms of MAST1, K317R, K545R, and the double KR mutant K317R/K545R (2KR) were generated.
as §2

[8] = system: MAST1 mRNA; experiment: MAST1 mRNA expression upon 17-AAG treatment; assay type: cell-based, human
[9] = system: KB-3-1 cells; experiment: CellTiter-Glo Luminescent Cell Viability assay, GR antagonist or agonist with cisplatin; assay type: cell-based, human
Method: (§5) Loss of GR sensitizes cells to cisplatin. GR was inhibited by shRNA (top) or by antagonist (bottom) in the presence or absence of cisplatin. Cell viability and MEK activity was measured by CellTiter-Glo™ Luminescent Cell Viability assay and p-MEK1 S217/S221 blot, respectively. Cisplatin: 1 μg/ml, Mifepristone: 10 μM.
(§6) GR was enhanced by overexpression (top) or agonist (bottom) and cell viability and MEK1 activity was measured, cisplatin: 3 μg/ml, dexamethasone: 0.5 μM.
(§7) To investigate whether GR contributes to cisplatin resistance in cancer cells, GR was genetically or pharmacologically modulated and changes in cisplatin-resistant cancer cell proliferation as well as the activity of MEK1, which is the predominant substrate of MAST1, was monitored. […] Exogenous overexpression of myc tagged MAST1 restored the attenuated cisplatin-resistant cell growth and MEK1 activity in KB-3-1 cells with GR inhibition either by GR shRNA or GR antagonist mifepristone (FIG. 2A). […] In contrast, reduction of MAST1 by shRNA abolished the elevated cisplatin resistant cancer cell proliferation and MEK1 activity in KB-3-1 cells with activated GR either by flag-GR overexpression or GR agonist dexamethasone (FIG. 2C). Knockdown of MAST1 dramatically attenuated cisplatin resistant tumor growth in xenograft mice bearing flag-GR stably overexpressed KB-3-1 cells (FIG. 2D).

[10] = system: MEK1; experiment: MEK1 activity by p-MEK1 S217/S221 blot, GR antagonist or agonist with cisplatin; assay type: cell-based, human; conditions: KB-3-1 cells
Method: as §5, §6, §7

[11] = system: MAST1; experiment: MAST1 ubiquitination and degradation with proteasome inhibitor; assay type: cell-based, human
Method: as §4

[12] = system: 96 cellular TFs; experiment: Transcription Factor Activation Profiling Array; assay type: cell-based, human; conditions: cisplatin treated vs nontreated KB-3-1 cells
Method: (§8) The Transcription Factor Activation Profiling Array detects activities of 96 cellular TFs, including HIF1, p53, and NF-kB, which are essential in regulating cellular gene expression. Among the 96 TFs, 6 were activated more than 1.8-fold when cells were treated with cisplatin, including GR/[…] (PR), NFAT, ATF2, CAR, and CBF. To investigate whether any of these TFs activate the MAST1 promoter, these 6 TFs were knocked down in KB-3-1 cells and a MAST1 promoter reporter activity assay was performed in the presence of cisplatin. Knockdown of GR but not other TFs attenuated MAST1 promoter activity. In addition, modulation of GR affected MAST1 promoter activity in the presence of cisplatin in cancer cells. Target downregulation or overexpression of GR abolished or enhanced MAST1 promoter activity in a cisplatin dose-dependent manner in KB-3-1 cells. In line with the changes seen in MAST1 mRNA, MAST1 protein level correlated with GR level in cancer cells (FIG. 3D).

[13] = system: MAST1 promoter; experiment: MAST1 promoter reporter activity assay; assay type: cell-based, human; conditions: pMAST1-luc reporter
Method: as §8
GR binds to the glucocorticoid response element (GRE) on DNA within the promoter region and regulates genes. A GRE was identified within the MAST1 promoter sequence at −44 to −58. […]

[14] = system: GR; experiment: GR intracellular location by immunofluorescence staining; assay type: cell-based, human; conditions: KB-3-1 cancer cell line
Text: To explore the molecular mechanism by which the transcription factor activity of GR is enhanced by cisplatin treatment, the intracellular location of GR in cisplatin-treated cells was investigated. GR resides predominantly in the cytoplasm as part of a heterooligomeric complex of HSP 40, 70, and 90 and other proteins. Binding to its agonist ligand changes the conformation of GR, which dissociates from the HSPs and possibly other protein factors, and translocates into the nucleus. The nuclear translocated GR is considered to be activated GR. Thus, experiment were performed to determine whether cisplatin treatment changes the cellular location of GR from the cytosol to the nucleus in cancer cells. […] This observation was confirmed in vivo in xenograft mice. […] Furthermore, the translocation of GR was found in paired primary HNSCC patient tumors. GR was located mainly in the cytosol in tumors collected from patients before cisplatin or carboplatin therapy, whereas the GR was predominantly stained in the nucleus in tumors collected from patients after the therapy. These experiments indicate that cisplatin treatment activates GR by translocating it to the nucleus in cancer cells.

[15] = system: KB-3-1 xenografted tumors; experiment: Xenograft mice bearing KB-3-1 tumors treated with cisplatin; assay type: in vivo
Method: (§9) Experiments were performed to determine whether MAST1 is induced by cisplatin treatment. Cell line-based studies indicate that MAST1 is increased upon cisplatin treatment in three cancer cell lines, KB-3-1, A549, and A2780. To validate this observation in vivo, cisplatin-resistant tumors were established by treating KB-3-1 bearing mice with sub-effective doses of cisplatin. The MAST1 gene was induced in xenografted tumors after cisplatin administration in mice. […] Cisplatin-resistant refers to patients with tumor recurrence within two years of cisplatin or carboplatin-based chemotherapy.
To explore the molecular mechanism by which the transcription factor activity of GR is enhanced by cisplatin treatment, the intracellular location of GR in cisplatin-treated cells was investigated. GR resides predominantly in the cytoplasm as part of a heterooligomeric complex of HSP 40, 70, and 90 and other proteins. Binding to its agonist ligand changes the conformation of GR, which dissociates from the HSPs and possibly other protein factors, and translocates into the nucleus. The nuclear translocated GR is considered to be activated GR. Thus, experiment were performed to determine whether cisplatin treatment changes the cellular location of GR from the cytosol to the nucleus in cancer cells. […] This observation was confirmed in vivo in xenograft mice. […]

[16] = system: MAST1; experiment: MAST1 induction by cisplatin in cancer cell lines; assay type: cell-based, human; conditions: KB-3-1, A549, and A2780 cell lines
Method: as §9

[17] = system: ovarian cancer and head and neck cancer PDX; experiment: Tumor volume in PDX mice treated with cisplatin, dexamethasone and lestaurtinib; assay type: in vivo; conditions: 5 mg/kg cisplatin, 0.1 mg/kg dexamethasone twice/week, 20 mg/kg lestaurtinib daily
Method: Tumor volumes were measured by caliper.
Therefore, we performed pilot experiments in vitro and in vivo to examine the concept.

[18] = system: GR, MAST1; experiment: Dexamethasone effect on GR activity, MAST1 expression and cisplatin-resistant tumor growth; conditions: treatment with dexamethasone
[19] = cisplatin 1 μg/ml, mifepristone 10 μM
[20] = cisplatin 3 μg/ml, dexamethasone 0.5 μM

Sequence of hsp90B (P08238 whole entry): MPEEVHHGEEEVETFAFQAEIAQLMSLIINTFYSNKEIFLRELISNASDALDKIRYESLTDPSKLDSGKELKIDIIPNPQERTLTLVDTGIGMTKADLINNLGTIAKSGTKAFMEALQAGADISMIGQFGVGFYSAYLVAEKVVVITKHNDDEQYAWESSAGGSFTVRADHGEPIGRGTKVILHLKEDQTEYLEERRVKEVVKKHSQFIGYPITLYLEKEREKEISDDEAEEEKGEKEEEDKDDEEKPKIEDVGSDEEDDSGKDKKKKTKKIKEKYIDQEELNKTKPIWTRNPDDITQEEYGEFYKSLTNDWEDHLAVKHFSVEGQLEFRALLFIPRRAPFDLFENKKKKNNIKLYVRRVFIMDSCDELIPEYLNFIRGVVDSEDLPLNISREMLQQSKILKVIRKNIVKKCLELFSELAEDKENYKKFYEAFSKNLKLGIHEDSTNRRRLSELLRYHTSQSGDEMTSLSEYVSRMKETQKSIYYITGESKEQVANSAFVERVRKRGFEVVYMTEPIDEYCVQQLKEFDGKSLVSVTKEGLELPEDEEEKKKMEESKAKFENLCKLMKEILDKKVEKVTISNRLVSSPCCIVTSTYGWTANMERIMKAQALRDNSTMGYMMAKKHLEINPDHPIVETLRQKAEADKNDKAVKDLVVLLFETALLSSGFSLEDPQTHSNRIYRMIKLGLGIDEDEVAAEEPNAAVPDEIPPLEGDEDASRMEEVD

C=CCNC1=C2CC(C)CC(OC)C(O)C(C)C=C(C)C(OC(N)=O)C(OC)C=CC=C(C)C(=O)NC(=CC1=O)C2=O (centres unmarked) [17-AAG, 19-(allylamino)-13-hydroxy-8,14-dimethoxy-4,10,12,16-tetramethyl-3,20,22-trioxo-2-azabicyclo[16.3.1]docosa-1(21),4,6,10,18-pentaen-9-yl carbamate]
cell viability and cisplatin resistance, cells expressing MAST1 2KR ([1]; MAST1 2KR, in the presence of cisplatin): no significant decrease in cell viability and cisplatin resistance | cell viability and cisplatin resistance, cells expressing MAST1 WT ([1]; MAST1 WT, in the presence of cisplatin): sensitive to 17-AAG treatment | cisplatin resistance of cisplatin-resistant cancer cells ([1]; with cisplatin): significantly sensitized cisplatin-resistant cancer cells to cisplatin | activity of the downstream substrate MEK1 [2]: attenuated activity of the downstream substrate MEK1 | protein levels of hsp90 client proteins AKT or cRaf [3]: insufficient to decrease | binding to hsp90B (SPR) [4]: binds to both hsp90A and hsp90B | tumor growth, MAST1 2KR xenograft tumors ([5]; KB-3-1cisR MAST1 2KR, cisplatin (5 mg/kg) and 17-AAG (50 mg/kg)): resistant to these effects of 17-AAG treatment | tumor growth, MAST1 WT xenograft tumors ([5]; KB-3-1cisR MAST1 WT, cisplatin (5 mg/kg) and 17-AAG (50 mg/kg)): attenuated tumor growth upon cisplatin exposure | MAST1 protein level in xenograft tumors ([5]; xenograft mice, with cisplatin): decreased | xenograft tumor response to cisplatin ([5]; xenograft mice, with cisplatin): sensitized xenograft tumors to cisplatin | binding to hsp90A (SPR) [6]: binds to both hsp90A and hsp90B | 2KR MAST1 protein ([7]; MAST1 K317R/K545R (2KR)): remained intact | wild-type (WT) MAST1 protein ([7]; MAST1 WT): degraded upon 17-AAG treatment in a dose-dependent manner | MAST1 protein levels ([7]; cancer cells): diminished MAST1 protein levels in a dose-dependent manner; also recorded: decreased the level of MAST1 | MAST1 mRNA expression levels [8]: remained unchanged

CC#CC1(O)CCC2C3CCC4=CC(=O)CCC4=C3C(c3ccc(N(C)C)cc3)CC21C (centres unmarked) [mifepristone, 11-(4-(dimethylamino)phenyl)-17-hydroxy-13-methyl-17-(prop-1-yn-1-yl)-1,2,6,7,8,11,12,13,14,15, 16,17-dodecahydro-3H-cyclopenta[a]phenanthren-3-one]
cisplatin response (cell viability) [9, 19]: sensitized cancer cells to cisplatin treatment | MEK1 activity (MEK1 phosphorylation at S217/S221) [10, 19]: attenuated MEK1 activity

CC(C)C[C@@H](C=O)NC(=O)[C@H](CC(C)C)NC(=O)[C@H](CC(C)C)NC(=O)OCc1ccccc1 [MG-132] (Cbz-Leu-Leu-Leu-aldehyde)
17-AAG-mediated MAST1 degradation ([11]; 293T cells): prevented 17-AAG-mediated MAST1 degradation | MAST1 ubiquitination ([11]; proteasome inhibitor treatment): led to MAST1 ubiquitination

N.N.[Cl][Pt][Cl] [cisplatin]
transcription factor activation (6 of 96 TFs incl. GR/PR, NFAT, ATF2, CAR, CBF) [12]: more than 1.8 fold | WT MAST1 promoter activity [13]: induced WT MAST1 promoter activity | GR cellular location [14]: translocated from the cytosol to the nucleus | GR location in xenograft tumors ([15]; administration of cisplatin): nuclear translocation of GR | MAST1 gene in xenografted tumors ([15]; after cisplatin administration in mice): induced | MAST1 level upon cisplatin treatment [16]: increased

CC1CC2C3CCC4=CC(=O)C=CC4(C)C3(F)C(O)CC2(C)C1(O)C(=O)CO (centres unmarked) [dexamethasone, 9-fluoro-11,17-dihydroxy-17-(2-hydroxyacetyl)-10,13,16-trimethyl-6,7,8,9,10,11,12,13,14,15,16,17-dodecahydro-3H-cyclopenta [a]phenanthren-3-one]
cisplatin response (cell viability) [9, 20]: conferred cisplatin resistance to cancer cells | MEK1 activity [10, 20]: reactivation of MEK1 | tumor growth (tumor volume) [17]: abolished the cisplatin effect | GR activity, MAST1 expression, cisplatin-resistant tumor growth [18]: enhanced GR activity, MAST1 expression, and cisplatin-resistant tumor growth
